Experimental data published in patent US11149040B2, “Fused triazole agonists of the APJ receptor” (AMGEN INC., priority 2017, dated 2021).
pEC50: −log10 of the molar value.

biological target: human APJ receptor (Homo sapiens (Human), UniProt P35414); experiment: [35S]GTPγS binding assay on membranes from CHO cells stably expressing human APJ receptor; type: biochemical; conditions: read-out: Activity hAPJ SPA EC50 IP
How it was run: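 Membranes from CHO cells stably expressing FLAG-tagged human APJ; assay buffer GDP, MgCl2 and NaCl levels optimised beforehand. Incubation 90 min at RT, imager read-out. EC50 from non-linear regression on means of several independent experiments.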

human APJ receptor, sequence (P35414 whole entry): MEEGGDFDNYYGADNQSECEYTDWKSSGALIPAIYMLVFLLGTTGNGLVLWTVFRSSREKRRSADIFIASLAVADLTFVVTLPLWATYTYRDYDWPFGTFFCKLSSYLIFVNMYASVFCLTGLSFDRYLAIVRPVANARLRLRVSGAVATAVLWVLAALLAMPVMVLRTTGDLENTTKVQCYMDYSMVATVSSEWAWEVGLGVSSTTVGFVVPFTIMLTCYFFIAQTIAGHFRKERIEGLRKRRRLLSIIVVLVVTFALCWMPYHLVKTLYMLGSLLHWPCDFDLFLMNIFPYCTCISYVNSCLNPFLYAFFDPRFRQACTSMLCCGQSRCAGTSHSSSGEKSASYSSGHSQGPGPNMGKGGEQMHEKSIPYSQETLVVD

Compound | pEC50
COc1ccc2c(c1)-c1nnc(NS(=O)(=O)[C@@H](C)[C@@H](OC(C)C)c3ncc(C)cn3)n1C(CO)CO2 (single isomer, unassigned) [Example 151.0, (1S,2S)-N-((5R)-5-(hydroxymethyl)-10-methoxy-5,6-dihydro[1,2,4]triazolo[4,3-d][1,4]benzoxazepin-3-yl)-1-(5-methyl-2-pyrimidinyl)-1-(2-propanyloxy)-2-propanesulfonamide or (1S,2S)-N-((5S)-5-(hydroxymethyl)-10-methoxy-5,6-dihydro[1,2,4]triazolo[4,3-d][1,4]benzoxazepin-3-yl)-1-(5-methyl-2-pyrimidinyl)-1-(2-propanyloxy)-2-propanesulfonamide] | 5.90
COCC1COc2ccc(OC)cc2-c2nnc(NS(=O)(=O)[C@@H](C)[C@@H](OC(C)C)c3ncc(C)cn3)n21 (single isomer, unassigned) [Example 152.0, (1S,2S)-N-((5R)-10-methoxy-5-(methoxymethyl)-5,6-dihydro[1,2,4]triazolo[4,3-d][1,4]benzoxazepin-3-yl)-1-(5-methyl-2-pyrimidinyl)-1-(2-propanyloxy)-2-propanesulfonamide or (1S,2S)-N-((5S)-10-methoxy-5-(methoxymethyl)-5,6-dihydro[1,2,4]triazolo[4,3-d][1,4]benzoxazepin-3-yl)-1-(5-methyl-2-pyrimidinyl)-1-(2-propanyloxy)-2-propanesulfonamide] | 7.43
COCC1COc2ccc(OC)cc2-c2nnc(NS(=O)(=O)[C@@H](C)[C@@H](OC(C)C)c3ncc(C)cn3)n21 (single isomer, unassigned) [Example 153.0, (1S,2S)-N-((5R)-10-methoxy-5-(methoxymethyl)-5,6-dihydro[1,2,4]triazolo[4,3-d][1,4]benzoxazepin-3-yl)-1-(5-methyl-2-pyrimidinyl)-1-(2-propanyloxy)-2-propanesulfonamide or (1S,2S)-N-((5S)-10-methoxy-5-(methoxymethyl)-5,6-dihydro[1,2,4]triazolo[4,3-d][1,4]benzoxazepin-3-yl)-1-(5-methyl-2-pyrimidinyl)-1-(2-propanyloxy)-2-propanesulfonamide] | 6.60
Cc1cnc([C@H](OC(C)C)[C@H](C)S(=O)(=O)Nc2nnc3n2[C@H](CO)OCc2ccc(C(F)(F)F)cc2-3)nc1 (single isomer, unassigned) [Example 156.0, (1S,2S)-N-((R)-5-(hydroxymethyl)-10-(trifluoromethyl)-5,6-dihydrobenzo[f][1,2,4]triazolo[4,3-d][1,4]oxazepin-3-yl)-1-isopropoxy-1-(5-methylpyrimidin-2-yl)propane-2-sulfonamide or (1S,2S)-N-((S)-5-(hydroxymethyl)-10-(trifluoromethyl)-5,6 dihydrobenzo[f][1,2,4]triazolo[4,3-d][1,4]oxazepin-3-yl)-1-isopropoxy-1-(5-methylpyrimidin-2-yl)propane-2-snlfonamide] | 5.68
Cc1cnc([C@H](OC(C)C)[C@H](C)S(=O)(=O)Nc2nnc3n2C(CO)COc2ccc(C(F)(F)F)cc2-3)nc1 (single isomer, unassigned) [Example 157.0, (1S,2S)-N-((R)-5-(hydroxymethyl)-10-(trifluoromethyl)-5,6-dihydrobenzo[f][1,2,4]triazolo[4,3-d][1,4]oxazepin-3-yl)-1-isopropoxy-1-(5-methylpyrimidin-2-yl)propane-2-sulfonamide or (1S,2S)-N-((S)-5-(hydroxymethyl)-10-(trifluoromethyl)-5,6-dihydrobenzo[f][1,2,4]triazolo[4,3-d][1,4]oxazepin-3-yl)-1-isopropoxy-1-(5-methylpyrimidin-2-yl)propane-2-sulfonamide] | < 4.90
COC[C@@H]1COc2ccc(OC)nc2-c2nnc(NS(=O)(=O)[C@@H](C)[C@H](C)c3ncc(OC)cn3)n21 (stereo in doubt) [Example 3.0, (2S,3R)-N-((5R)-10-methoxy-5-(methoxymethyl)-5,6-dihydropyrido[2,3-f][1,2,4]triazolo[4,3-d][1,4]oxazepin-3-yl)-3-(5-methoxy-2-pyrimidinyl)-2-butanesulfonamide and (2S,3R)-N-((5S)-10-methoxy-5-(methoxymethyl)-5,6-dihydropyrido[2,3-f][1,2,4]traizolo[4,3-d][1,4]oxazepin-3-yl)-3-(5-methoxy-2-pyrimidinyl)-2-butanesulfonamide] | 6.31
COC[C@@H]1COc2ccc(F)cc2-c2nnc(NS(=O)(=O)[C@@H](C)[C@H](OC)c3ncc(C)cn3)n21 (stereo in doubt) [Example 24.0, (1R,2S)-N-((5R)-10-fluoro-5-(methoxymethyl)-5,6-dihydro[1,2,4]traizolo[4,3-d][1,4]benzoxazepin-3-yl)-1-methoxy-1-(5-methyl-2-pyrimidinyl)-2-propanesulfonamide and (1R,2S)-N-((5S)-10-fluoro-5-(methoxymethyl)-5,6-dihydro[1,2,4]triazolo[4,3-d][1,4]benzoxazepin-3-yl)-1-methoxy-1-(5-methyl-2-pyrimidinyl)-2-propanesulfonamide] | 6.59
COC[C@@H]1COc2cnccc2-c2nnc(NS(=O)(=O)[C@@H](C)[C@@H](OC(C)C)c3ncc(C)cn3)n21 (stereo in doubt) [Example 43.0, (1S,2S)-N-((5R)-5-(methoxymethyl)-5,6-dihydropyrido[4,3-f][1,2,4]triazolo[4,3-d][1,4]oxazepin-3-yl)-1-(5-methyl-2-pyrimidinyl)-1-(2-propanyloxy)-2-propanesulfonamide and (1S,2S)-N-((5S)-5-(methoxymethyl)-5,6-dihydropyrido[4,3-f][1,2,4]traizolo[4,3-d][1,4]oxazepin-3-yl)-1-(5-methyl-2-pyrimidinyl)-1-(2-propanyloxy)-2-propanesulfonamide] | 5.92
C=C1COc2ccccc2-c2nnc(NS(=O)(=O)[C@@H](C)[C@@H](OC(C)C)c3ncc(C)cn3)n21 [Example 17.0, (1S,2S)-N-(5-Methylidene-5,6-dihydro[1,2,4]triazolo[4,3-d][1,4]benzoxazepin-3-yl)-1-(5-methyl-2-pyrimidinyl)-1-(2-propanyloxy)-2-propanesulfonamide] | 6.00
C=C1COc2ncccc2-c2nnc(NS(=O)(=O)[C@@H](C)[C@@H](OC(C)C)c3ncc(Cl)cn3)n21 [Example 60.0, (1S,2S)-1-(5-chloro-2-pyrimidinyl)-N-(5-methylidene-5,6-dihydropyrido[3,2-f][1,2,4]triazolo[4,3-d][1,4]oxazepin-3-yl)-1-(2-propanyloxy)-2-propanesulfonamide] | 6.07

system: heart failure rats; experiment: Cardiac contractility in vivo in heart failure rat model; conditions: alone, acute settings
Method: Evidence for Improvement in Cardiac Contractility In Vivo in Heart Failure Rat Model Based on ex vivo findings in isolated heart assay, APJ agonists are dosed in vivo to investigate the translation of cardiac contractility in in vivo settings. Male Lewis rats (Charles River, USA) at 2-3 months of age are used for the study. Heart failure is induced by permanent ligation of the left descending coronary artery which results in injury to the heart with an ejection fraction of <35%. APJ agonists are administered dose dependently acutely for a period of 30 min. Administration of APJ agonists lead to an increase in cardiac contractility as measured by dP/dtmax (derivative of left ventricular pressure).

Compound | improvement in contractility or ejection fraction
C[C@H](CS)C(=O)N1CCC[C@H]1C(=O)O [Captopril, captopril] | does not show a marked improvement in contractility or ejection fraction acutely
